Experimental data from PMC9278120, “Epitope alteration by small molecules and applications in drug discovery” (Chemical Science, 2022).

Columns and labels:
amyloid beta (Aβ1–40) [1] = target: T1, amyloid beta (Aβ1–40) (Homo sapiens, UniProt P05067); test: FRET titration of ternary complex with 4G8 and PE-labelled secondary antibody; dot blot; fluorescence probe in competition; type: binding; set-up: gene APP; Aβ1–40 monomers (also oligomers and aggregates); with 4G8 antibody
amyloid beta (Aβ1–40) [2] = target: T1, amyloid beta (Aβ1–40); test: fluorescence competition with CRANAD-3; also antibody dot blot, MSD, Simoa and ThT aggregation assay; type: binding; set-up: gene APP; Aβ1–40 monomers
amyloid beta (Aβ1–40) [3] = target: T1, amyloid beta (Aβ1–40); test: concentration-dependent 4G8 dot blot (one-site binding fit); ANS fluorescence; FRET; MSD/Simoa; set-up: gene APP; Aβ1–40; fragment Aβ17–24 also tested by ANS; with 4G8 antibody

T1 sequence (P05067 672-711): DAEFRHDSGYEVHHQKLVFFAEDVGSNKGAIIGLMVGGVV

Compound: CCN(CC)c1ccc(/C=C/C2=CC(/C=C/c3ccc(N(CC)CC)nc3)=[O+][B-](F)(F)O2)cn1 [CRANAD-3]
- FRET titration of ternary complex with 4G8 and PE-labelled secondary antibody; d (amyloid beta (Aβ1–40) [1]): enhanced antibody recognition was due to the formation of the ternary complex of CRANAD-3, Aβs and 4G8 antibody

Compound: Cc1ccc(NC(=O)Nc2cc(C(F)(F)F)ccc2F)cc1Nc1ccc2c(c1)NC(=O)/C2=C\c1ccc[nH]1 [GNF-5837]
- Ki (amyloid beta (Aβ1–40) [2]): 4.16 ± 1.04 nM

Compound: CRANAD-17
- EC50 (amyloid beta (Aβ1–40) [3]): 121 nM
